Experimental data taken from ChEMBL document CHEMBL1201862, “PubChem BioAssay data set” (2004).
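96-well plates; 48 h exposure; 5 concentrations. Endpoints by linear interpolation between flanking doses. Not reached: highest tested concentration assigned. At the GI50, growth is halved.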 Activity calls are given as the source filed them. No stated cut-off is given here; in the data, active = GI50 up to about 1.1 µM and inactive = higher.

How the values were obtained:
Assay in all cases: NCI-60 cell line screen, 48 h
K562 = tested on: K562
HCC 2998 = tested on: HCC 2998
U-251 = tested on: U-251
RPMI-8226 = tested on: RPMI-8226
NCI-H226 = tested on: NCI-H226
LOX IMVI = tested on: LOX IMVI
UACC-62 = tested on: UACC-62
HCT-116 = tested on: HCT-116
SW-620 = tested on: SW-620
SNB-75 = tested on: SNB-75
MOLT-4 = tested on: MOLT-4
RXF 393 = tested on: RXF 393
OVCAR-5 = tested on: OVCAR-5
OVCAR-4 = tested on: OVCAR-4
KM12 = tested on: KM12
SK-OV-3 = tested on: SK-OV-3

| SMILES | GI50 (K562) | GI50 (HCC 2998) | GI50 (U-251) | GI50 (RPMI-8226) | GI50 (NCI-H226) | GI50 (LOX IMVI) | GI50 (UACC-62) | GI50 (HCT-116) | GI50 (SW-620) | GI50 (SNB-75) | GI50 (MOLT-4) | GI50 (RXF 393) | GI50 (OVCAR-5) | GI50 (OVCAR-4) | GI50 (KM12) | GI50 (SK-OV-3) |
| --- | --- | --- | --- | --- | --- | --- | --- | --- | --- | --- | --- | --- | --- | --- | --- | --- |
| C=CCNC1=C(C(=O)OCC)C(=O)CO1 | > 100 µM (inactive) | > 100 µM (inactive) | > 100 µM (inactive) | > 100 µM (inactive) | > 100 µM (inactive) | > 100 µM (inactive) | > 100 µM (inactive) | > 100 µM (inactive) | > 100 µM (inactive) | > 100 µM (inactive) | > 100 µM (inactive) | > 100 µM (inactive) | > 100 µM (inactive) | > 100 µM (inactive) |  |  |
| C=CCNC(=S)N1CC(C)C(=O)Nc2cc(Cl)ccc21 (stereo not given) | > 100 µM (inactive) |  | > 100 µM (inactive) | > 100 µM (inactive) | 54.2 µM (inactive) |  | > 100 µM (inactive) | > 100 µM (inactive) |  | > 100 µM (inactive) | > 100 µM (inactive) | > 100 µM (inactive) | > 100 µM (inactive) | > 100 µM (inactive) | > 100 µM (inactive) | > 100 µM (inactive) |
| COc1ccc2c(c1)C1(C=N2)CCN(C(C)=O)CC1 | > 100 µM (inactive) | > 100 µM (inactive) | > 100 µM (inactive) | 50.4 µM (inactive) |  | > 100 µM (inactive) | > 100 µM (inactive) | > 100 µM (inactive) | > 100 µM (inactive) | 41.1 µM (inactive) | 82 µM (inactive) |  | > 100 µM (inactive) | > 100 µM (inactive) | 57.7 µM (inactive) | > 100 µM (inactive) |
| CC1(C)CC(=O)C(CC2C(=O)c3ccccc3C2=O)C(=O)C1 | > 100 µM (inactive) | > 100 µM (inactive) | > 100 µM (inactive) |  | > 100 µM (inactive) | > 100 µM (inactive) | > 100 µM (inactive) | > 100 µM (inactive) | > 100 µM (inactive) | > 100 µM (inactive) | > 100 µM (inactive) | > 100 µM (inactive) | > 100 µM (inactive) | > 100 µM (inactive) | > 100 µM (inactive) | > 100 µM (inactive) |
| C=CCC(C)(C(=O)NCCC)C(=O)c1ccccc1O (stereo not given) | > 100 µM (inactive) | > 100 µM (inactive) | > 100 µM (inactive) | > 100 µM (inactive) | > 100 µM (inactive) |  | > 100 µM (inactive) | > 100 µM (inactive) | > 100 µM (inactive) | > 100 µM (inactive) | > 100 µM (inactive) | > 100 µM (inactive) |  | > 100 µM (inactive) | > 100 µM (inactive) | > 100 µM (inactive) |
| CC(=O)Nc1ccc(C(=O)NN2C(=O)C(Cl)C2c2ccc(O)cc2)cc1 (stereo not given) | > 100 µM (inactive) |  | > 100 µM (inactive) |  | > 100 µM (inactive) | > 100 µM (inactive) | > 100 µM (inactive) | > 100 µM (inactive) | > 100 µM (inactive) | > 100 µM (inactive) | > 100 µM (inactive) | 61.7 µM (inactive) | > 100 µM (inactive) | > 100 µM (inactive) |  | > 100 µM (inactive) |
| c1ccc2[nH]c(-c3nc4ccccc4o3)nc2c1 |  | > 100 µM (inactive) | > 100 µM (inactive) | 81.3 µM (inactive) | 86.3 µM (inactive) | 66.1 µM (inactive) |  | > 100 µM (inactive) |  | > 100 µM (inactive) | > 100 µM (inactive) |  | > 100 µM (inactive) | > 100 µM (inactive) | > 100 µM (inactive) | > 100 µM (inactive) |
| COc1cc(Br)c(CC2(C#N)c3ccccc3C3C(N2C(=O)c2ccccc2)C3(Cl)Cl)cc1OC (stereo not given) | 5.7 µM (inactive) | 20.9 µM (inactive) | 39.4 µM (inactive) | 0.935 µM (active) | > 65.5 µM (inactive) | > 65.5 µM (inactive) | 33.5 µM (inactive) | > 65.5 µM (inactive) | > 65.5 µM (inactive) | > 65.5 µM (inactive) | 2.03 µM (inactive) | > 65.5 µM (inactive) | > 65.5 µM (inactive) |  | 23.1 µM (inactive) | > 65.5 µM (inactive) |
| OCCCCOC(c1ccccc1)(c1ccccc1)c1ccccc1 | > 100 µM (inactive) | > 100 µM (inactive) | > 100 µM (inactive) | > 100 µM (inactive) | > 100 µM (inactive) | > 100 µM (inactive) | > 100 µM (inactive) | > 100 µM (inactive) | > 100 µM (inactive) | 67.5 µM (inactive) | > 100 µM (inactive) | > 100 µM (inactive) | > 100 µM (inactive) | > 100 µM (inactive) | > 100 µM (inactive) | > 100 µM (inactive) |
| COc1cc2c(c(OC)c1OC)-c1ccc(SC)c(=O)cc1C(CC(=O)Oc1cccc(C#N)c1)C2 (stereo not given) | 0.181 µM (active) | 0.254 µM (active) | 0.354 µM (active) | 0.583 µM (active) | 0.222 µM (active) | 0.484 µM (active) | 0.202 µM (active) | 0.387 µM (active) | 0.327 µM (active) | 0.291 µM (active) | 0.536 µM (active) | 0.167 µM (active) |  | 3.32 µM (inactive) | 0.292 µM (active) | 0.046 µM (active) |
| O=c1/c(=C/c2ccccc2F)sc2nc3ccccc3n12 | > 100 µM (inactive) | > 100 µM (inactive) | 38.7 µM (inactive) | > 100 µM (inactive) | > 100 µM (inactive) | 91 µM (inactive) | > 100 µM (inactive) | > 100 µM (inactive) | > 100 µM (inactive) | 57.4 µM (inactive) | > 100 µM (inactive) | > 100 µM (inactive) | > 100 µM (inactive) | > 100 µM (inactive) |  |  |
| CCc1cc(Cc2ccc(C)c(NC(=O)C(=O)C3C(=O)NC(=O)NC3=O)c2CC)cc(C)c1NC(=O)C(=O)C1C(=O)NC(=O)NC1=O | > 100 µM (inactive) | > 100 µM (inactive) | > 100 µM (inactive) | > 100 µM (inactive) |  | > 100 µM (inactive) | > 100 µM (inactive) | > 100 µM (inactive) | > 100 µM (inactive) | 24.6 µM (inactive) | 93.5 µM (inactive) | > 100 µM (inactive) | > 100 µM (inactive) | > 100 µM (inactive) | > 100 µM (inactive) | > 100 µM (inactive) |
| Cc1c(C(=O)CSc2nc3ccccc3[nH]2)c(=O)n(-c2ccccc2)n1C |  | > 100 µM (inactive) | > 100 µM (inactive) | > 100 µM (inactive) | > 100 µM (inactive) | > 100 µM (inactive) |  | > 100 µM (inactive) | > 100 µM (inactive) | > 100 µM (inactive) | > 100 µM (inactive) |  | > 100 µM (inactive) | > 100 µM (inactive) | > 100 µM (inactive) | > 100 µM (inactive) |
| COc1cccc2c1C(=O)c1c(O)c3c(c(O)c1C2=O)C[C@@](O)(C(C)O)C[C@@H]3OC1CC(N)C(O)C(C)O1 (stereo not given in full) | 1.12 µM (active) | 1.68 µM (inactive) | 0.885 µM (active) |  | 0.607 µM (active) | 0.524 µM (active) | 1.34 µM (inactive) | 0.805 µM (active) | 1.05 µM (active) | 0.00982 µM (active) | 0.105 µM (active) | 1.47 µM (inactive) | 3.3 µM (inactive) | 4.99 µM (inactive) | 2.24 µM (inactive) | 2.72 µM (inactive) |
| O=C(CC1(O)C(=O)Nc2c(Cl)cc(Cl)cc21)c1ccccc1 (stereo not given) | 47.4 µM (inactive) |  |  | 31.3 µM (inactive) | > 100 µM (inactive) | > 100 µM (inactive) | 59.4 µM (inactive) | 50.5 µM (inactive) | 40.9 µM (inactive) | 38.6 µM (inactive) | 33.6 µM (inactive) | > 100 µM (inactive) | > 100 µM (inactive) | 39.2 µM (inactive) |  | > 100 µM (inactive) |
| O=C1OC(O)C(Oc2c(Cl)cccc2Cl)=C1Cl (stereo not given) | 17.3 µM (inactive) | 23.3 µM (inactive) | 13.8 µM (inactive) | 18.1 µM (inactive) | 18.4 µM (inactive) | 17.9 µM (inactive) | 11.9 µM (inactive) | 14.8 µM (inactive) | 15.1 µM (inactive) | 25.6 µM (inactive) | 21.8 µM (inactive) | 11.3 µM (inactive) | 19.4 µM (inactive) |  | 22.3 µM (inactive) | 19.5 µM (inactive) |
| N#CC1=C(N)N2C(=O)/C(=C/c3ccccc3)SC2C(c2nc3ccccc3[nH]2)=C1c1ccccc1 (stereo not given) | 5.32 µM (inactive) | 1.57 µM (inactive) | 2.44 µM (inactive) |  | 1.93 µM (inactive) | 1.73 µM (inactive) | 2.17 µM (inactive) | 3.45 µM (inactive) | 3.68 µM (inactive) | 1.74 µM (inactive) | 2.4 µM (inactive) |  | 2.54 µM (inactive) | 2.42 µM (inactive) | 3.55 µM (inactive) | 1.68 µM (inactive) |
| CCCCN(CCCC)/C(=N\C#N)NCc1ccccc1 | 7.43 µM (inactive) | 15.5 µM (inactive) | 15.3 µM (inactive) | 13.7 µM (inactive) | 24.3 µM (inactive) | 16.5 µM (inactive) | 16.3 µM (inactive) | 27.1 µM (inactive) | 15.8 µM (inactive) | 28.1 µM (inactive) |  | 22.5 µM (inactive) | 26.4 µM (inactive) | 28.6 µM (inactive) | 21.3 µM (inactive) | 20.7 µM (inactive) |
| Cc1cc(NS(=O)(=O)c2ccc(NC(=O)c3ccc(Cl)c4c(Nc5ccc(S(N)(=O)=O)cc5)c5ccccc5nc34)cc2)no1 | 26.9 µM (inactive) | 18.7 µM (inactive) | 11.5 µM (inactive) |  | 20.3 µM (inactive) | 14.6 µM (inactive) | 11.2 µM (inactive) | 15.2 µM (inactive) | 17.4 µM (inactive) | 20.3 µM (inactive) | 22.5 µM (inactive) | 16.8 µM (inactive) | 24.5 µM (inactive) | 24.3 µM (inactive) | 19.6 µM (inactive) | 34.8 µM (inactive) |
